Experimental data: article PMC5068747, “Using C. elegans Forward and Reverse Genetics to Identify New Compounds with Anthelmintic Activity” (PLoS Neglected Tropical Diseases, 2016)

Tests used:
[1] = tested on: C. elegans CB193 (unc-29(e193), levamisole resistant); assay: IC50 on levamisole resistant C. elegans strain; type: in vivo, Caenorhabditis elegans; conditions: Caenorhabditis elegans, 120 h; 5 days exposure, 2 L4 per well, three biological replicates
[2] = tested on: C. elegans VC3631 (mev-1 gk3613, D19 resistant); assay: IC50 on CID 2747322 resistant C. elegans strain VC3631; type: in vivo, Caenorhabditis elegans; conditions: Caenorhabditis elegans, 120 h; 5 days exposure, 2 L4 per well, three biological replicates
Protocol: All compound libraries were stored in 96-well plates, with 80 drugs per plate (columns 1 and 12 left empty). A BioGrid BG600 pinning robot (Digilab / BioRobotics) was used for compound transfer. The robot uses a 96-pin tool (0.7 mm dia.) to transfer a nominal volume of 340 nL of compound. For retesting, compounds were hand pinned from the original library plates to assay plates using a single 0.7 mm dia. pin. The assay plates were 96-well clear flat-bottom microplates containing 2% χ1666 E.coli bacteria in 0.5X Liquid Nematode Growth Media (LNGM) plus cholesterol (Bacteria were mass-grown in rich media, and harvested by centrifugation to produce a thick paste of bacterial cells that was kept frozen at -20°C. Cells were resuspended at 2% W/V in 0.5X LNGM to produce liquid worm food). Using a COPAS Biosort (Union Biometrica), two L4 to young adult stage VC2010 worms were added to each well of the plate in a final volume of 45 μL. After five days of exposure to the compounds, the plates were scanned and the data analyzed. A five day time period was chosen to be able to observe effects over all stages of the life cycle and through at least one round of replication. The initial proof-of-principle primary screen was performed manually using a dissecting microscope. Phenotypes scored included decreased motility, reduced brood size, and/or death as described previously. For high throughput screening of the Chembridge and Maybridge compound libraries we used the program WormScan, which was adapted for screening 96-well flat-bottom LNGM plates. Using WormScan it was possible to screen four 96-well plates at a time. Plates were scanned twice, at a resolution of 1200 dots per inch, 16-bit grayscale, producing a jpeg image. The light intensity produced by the scanner was sufficient to cause negative phototaxis equivalent to a physical stimulus for mortality determination. The time required to scan four 96-well plates using an Epson Perfection V700 Photo Scanner was less than ten minutes. The time to screen a single plate was less than 1.2 minutes, with less than ten seconds between scans.
WormScan was used to screen for the same phenotypes as in the manual screen (reduced brood size, reduced behavior/motility response and increased mortality). Two sequential scans for each 96-well plate were aligned to a reference region of interest (ROI). Image analysis was based on a difference image score calculated for each ROI. The difference image score (WormScan score) was normalized using a “percent of control” method to derive a normalized WormScan score. […] Wild-type growth in 1% DMSO (Fig 1A) results in a normalized WormScan score of 100. Exposure to 50 nM ivermectin gives a score of 0 (Fig 1C), and complete absence of worms gives a score of 0 (Fig 1D). For the primary screen the WormScan score was calculated using custom macro scripts written for Fiji. For secondary screening and any subsequent studies the WormScan score was calculated using a standalone Java program (See supplemental). Probit regression of mortality was calculated using Mathematica 8.0.
A standard ethyl methanesulfonate (EMS) mutagenesis protocol was carried out using VC2010 in order to generate mutants resistant to CID 2747322 exposure. First larval stage (L1) F2 progeny of mutagenized P0s were exposed to CID 2747322 at 200 μM in liquid worm food in 24-well tissue culture plates for five days at room temperature, and two independently isolated resistant lines (VC3614 and VC3615) were identified. […]

[3] = tested on: C. elegans DA1316 (avr-14(ad1302); avr-15(vu227); glc-1(pk54), ivermectin resistant); assay: IC50 on ivermectin resistant C. elegans strain; type: in vivo, Caenorhabditis elegans; conditions: Caenorhabditis elegans, 120 h; 5 days exposure, 2 L4 per well, three biological replicates
[4] = tested on: S. cerevisiae yeast strain BY4743; assay: Yeast growth rate (OD600) dose titration; type: cell-based; conditions: Saccharomyces cerevisiae; BY4743, YPD, growth rate reduced by 50%
Protocol: The S. cerevisiae yeast strain BY4743 (MATa/α his3Δ1/his3Δ1 leu2Δ0/leu2Δ0 LYS2/lys2Δ0 met15Δ0/MET15 ura3Δ0/ura3Δ0) was used for all yeast experiments and was grown using yeast extract peptone dextrose (YPD) media at pH 7 [52]. BY4743 was grown overnight to initial log phase and was then grown with the compound identified in the C. elegans assay. The growth rate was quantified by continuously monitoring the optical density of the liquid yeast growth at OD600. The compound was screened in a dose-titration in YPD as described. The IC50 was the concentration required to reduce the growth rate or Average G value by 50% compared to a vehicle control (2% DMSO).

[5] = tested on: C. elegans mitochondrial complex II (mev-1, sdha-1, sdhb-1, sdhd-1) mutant strains; assay: Resistance of mitochondrial complex II mutant MMP strains to CID 2747322; type: in vivo, Caenorhabditis elegans
Excerpt: CID 2747322 shares some structural similarity to the WACT-11 compound identified by. […] This led us to examine MMP strains with mutations in the other three mitochondrial complex II subunits; sdha-1, sdhb-1 and sdhd-1, to see if any of these strains are also resistant to CID 2747322. For thirteen strains with sdha-1 missense mutations, three are resistant. For eight strains with sdhb-1 missense mutations, two are resistant. For sdhd-1, one of five MMP strains is resistant (Table 5). To better understand how these different alleles might alter drug effectiveness, we mapped all of these mutations plus gk3613 onto an X-ray resolved protein crystal structure of the mitochondrial complex II of Ascaris suum (PDB: 3VRB) (Fig 3a).

COc1ccc(OCCNC(=O)c2ccccc2C(F)(F)F)cc1 [CID 2747322, N-[2-(4-methoxyphenoxy)ethyl]-2-(trifluoromethyl)benzamide]
IC50 [1]: 14 µM
IC50 [2]: > 500 µM
IC50 [3]: 16 µM
IC50 [4]: > 1000 µM
Resistance ([5]; strain VC20295, sdhd-1 A30V): none
Resistance ([5]; strain VC20401, sdhb-1 S209L): resistant
Resistance ([5]; strain VC20417, sdha-1 E305K): none
Resistance ([5]; strain VC20501, mev-1 S178N): none
Resistance ([5]; strain VC20587, sdhb-1 E294K): none
Resistance ([5]; strain VC20602, mev-1 G77S): resistant
Resistance ([5]; strain VC30090, sdha-1 G363E): sensitive
Resistance ([5]; strain VC30107, sdha-1 S292T): sensitive
Resistance ([5]; strain VC30120, sdhd-1 L59F): none
Resistance ([5]; strain VC40073, sdha-1 S142F): sensitive
Resistance ([5]; strain VC40186, sdhb-1 D192E): none
Resistance ([5]; strain VC40193, sdhb-1 T285I): resistant
Resistance ([5]; strain VC40304, sdha-1 P385S): none
Resistance ([5]; strain VC40350, sdha-1 V131I): none
Resistance ([5]; strain VC40364, sdhb-1 N118I): sensitive
Resistance ([5]; strain VC40386, sdhd-1 A97V): resistant
Resistance ([5]; strain VC40391, sdha-1 G335E): resistant
Resistance ([5]; strain VC40423, sdhb-1 I280S): sensitive
Resistance ([5]; strain VC40533, sdha-1 R482C): resistant
Resistance ([5]; strain VC40570, sdhd-1 L120F): none
Resistance ([5]; strain VC40576, sdha-1 D317N): sensitive
Resistance ([5]; strain VC40631, sdha-1 H504Y): none
Resistance ([5]; strain VC40752, sdhb-1 A34V): sensitive
Resistance ([5]; strain VC40764, sdha-1 A425V): sensitive
Resistance ([5]; strain VC40765, sdhb-1 L197F): none
Resistance ([5]; strain VC40770, sdha-1 E472K): none
Resistance ([5]; strain VC40781, mev-1 Y152D): resistant
Resistance ([5]; strain VC40799, mev-1 R52C): none
Resistance ([5]; strain VC40903, sdhd-1 D36N): none
Resistance ([5]; strain VC40934, mev-1 G88E): none
Resistance ([5]; strain VC41025, sdha-1 S570F): sensitive
